These results are taken from US12594261B2, “Use of heterocyclic derivatives with cardiomyocyte proliferation activity for treatment of heart diseases” (SHANGHAI EAST HOSPITAL (EAST HOSPITAL, TONGJI UNIVERSITY …, priority 2019, dated 2026).

In the test the test system is neonatal rat ventricular myocytes (NRVMs). As to the kind of experiment: Myocyte proliferation assay (EdU) in neonatal rat ventricular myocytes. It counts as cell-based. The note with it: Rattus norvegicus, Ventricular myocyte, growth relative to blank myocyte growth without compound added; for activation at 1 µM: 1 uM compound; for activation at 3 µM: 3 uM compound; for activation at 10 µM: 10 uM compound. As for the experimental part: 1. Isolation of and Culture Neonatal Rat Ventricular Myocytes (NRVMs)
Ventricles from neonatal rats were separated from the atria, cut into small pieces (about 2×2 mm^2) and then dissociated in Ca^2+-free HBSS containing 0.125 mg ml-1 trypsin (Gibco), 10 μg ml-1 DNase II (Sigma) and 0.1 mg ml-1 collagenase type IV (Sigma). The digestion was carried out under constant stirring at 37° C. for 5 min. The supernatant was collected with FBS (Gibco) after each digestion period. After digestion, the collected supernatant was centrifuged at 1000 g for 10 min at room temperature, and then cell pellets were resuspended in DMEM (Gibco) supplemented with 10% FBS and with 100 uM 5-bromo-2′-deoxyuridine (Sigma). The resuspended cells were passed through a cell strainer ([…], BD Falcon) and seeded onto 100-mm plastic dishes for 2 h at 37° C. in a 5% CO2 to remove fibroblasts, the supernatant was then collected and plated onto 1% gelatin (Sigma)-coated dishes. 24 h after the seeding, the medium was changed to DMEM (Gibco) containing 2% FBS (Gibco), 1% insulin-transferrin-selenium (ITS; Gibco), 1% Penicillin-Streptomycin (Gibco). After 24 hours of low serum culture, remove the medium with DMEM (Gibco) containing 6% FBS (Gibco), 1% insulin-transferrin-selenium (ITS; Gibco), 1% Penicillin-Streptomycin (Gibco), different concentrations of compounds (the compounds were pre-diluted in the medium and the drug concentration was 10 uM, 3 uM, 1 uM, fully mixed). After 36 h add Edu substrate (Invitrogen) according to the manufacturer's guidelines, and then after 12 h cell can be used.
2.1. Immobilization: Remove the medium and fix the cells with […] in 200 ul (whichever is covered) for 15 min and wash the cells twice with 500 ul of PBS for 5 min each time.
2.2. Broken membrane: Add 200 ul of 0.3% Triton-X 100 (diluted in PBS) to each well, incubate for 10-15 min at room temperature (the time should not be too long), and wash the cells twice with 500 ul of PBS for 5 min each time.
2.3. Blocking: Add 200 ul of 10% normal goat serum (diluted with 0.1% PBST) to each well, incubate for 1 h at room temperature, and wash twice with 500 ul of 0.1% PBST for 5 min each time.
2.4. Primary antibody: dilute the primary antibody (abcam, ab8295) to blocking solution at a ratio of 1:200, add 100 ul per well, incubate for 1 h at room temperature (may be slightly longer than 2-3 h), wash the cells twice with 500 ul 0.1% PBST for 5 min each time.
2.5. Secondary antibody: Dilute the fluorescently labeled secondary antibody (abcam, ab150117) into blocking solution at a ratio of 1:200, add 100 ul per well, incubate for 1 h at room temperature (the time should not be too long), wash the cells twice with 0.1% PBST for 5 min each time, pay attention to the whole process. Protected from light.
2.6. Edu staining (Invitrogen C10338)
2.6.1 Prepare Click-iT® reaction cocktail according to Table 3. It was important to add the ingredients in the order listed in the table; otherwise, the reaction would not proceed optimally. Use the Click-iT® reaction cocktail within 15 minutes of preparation.
2.6.2 Add 0.1 mL of Click-iT® reaction cocktail to each well containing a coverslip. Rock the plate briefly to ensure that the reaction cocktail is distributed evenly over the coverslip.
2.6.3 Incubate the plate for 30 minutes at room temperature, protected from light.
2.6.4 Remove the reaction cocktail, then wash the cells twice with 0.1% PBST for 5 min each time.
2.7. DAPI staining: DAPI stain was diluted to PBS at a ratio of 1:1000, 100 ul per well, incubated for 30 min at room temperature, and the cells were washed twice with PBS for 5 min each.
We used Molecular Devices' Image Xpress Micro Confocal for high-throughput photo and data analysis.

Consider `O=C1NC(NCC2CC2)=N/C1=C\c1ccc2c(c1)OCO2` [TJU-B029, (4Z)-4-[(2H-1,3-benzodioxol-5-yl)methylidene]-2-[(cyclopropylmethyl)amino]-4,5-dihydro-1H-imidazol-5-one], for which the activation at 1 µM is below 10%, the activation at 3 µM is below 10% and the activation at 10 µM was 10 to 50%.
Turning to `Cc1ccc(NC2=N/C(=C\c3ccc4c(c3)OCO4)C(=O)N2)cc1` [TJU-B110, (4Z)-4-[(2H-1,3-benzodioxol-5-yl)methylidene]-2-[(4-methylphenyl)amino]-4,5-dihydro-1H-imidazol-5-one], the activation at 1 µM fell in the range of 10 to 50%, the activation at 3 µM is below 10% and the activation at 10 µM was below 10%.
Molecule `CCNC1=N/C(=C\c2ccc3c(c2)OCO3)C(=O)N1` [TJU-B040, (4Z)-4-[(2H-1,3-benzodioxol-5-yl)methylidene]-2-(ethylamino)-4,5-dihydro-1H-imidazol-5-one] registered an activation at 1 µM of 10 to 50%, an activation at 3 µM of 10 to 50% and an activation at 10 µM of 10 to 50%.
The molecule `CN1C(=O)/C(=C/c2ccc3c(c2)OCO3)N=C1Nc1ccc2c(c1)OCO2` [TJU-B088, (4Z)-2-[(2H-1,3-benzodioxol-5-yl)amino]-4-[(2H-1,3-benzodioxol-5-yl)methylidene]-1-methyl-4,5-dihydro-1H-imidazol-5-one] registered an activation at 1 µM of 10 to 50%, an activation at 3 µM below 10% and an activation at 10 µM below 10%.
`NC1=N/C(=C\c2cc3c(cc2Cl)OCO3)C(=O)N1` [TJU-B064, (4Z)-2-amino-4-[(6-chloro-2H-1,3-benzodioxol-5-yl)methylidene]-4,5-dihydro-1H-imidazol-5-one] displayed an activation at 1 µM below 10%, an activation at 3 µM below 10% and an activation at 10 µM below 10%.
`CN1C(=O)/C(=C/c2ccc(F)cc2)N=C1N` [TJU-B050, (4Z)-2-amino-4-[(4-fluorophenyl)methylidene]-1-methyl-4,5-dihydro-1H-imidazol-5-one]: the activation at 1 µM is below 10%, the activation at 3 µM was below 10% and the activation at 10 µM is 10 to 50%.
`COc1cccc(/C=C2\N=C(N)N(C)C2=O)c1` [TJU-B036, (4Z)-2-amino-4-[(3-methoxyphenyl)methylidene]-1-methyl-4,5-dihydro-1H-imidazol-5-one] registered an activation at 1 µM of 10 to 50%, an activation at 3 µM below 10% and an activation at 10 µM of 10 to 50%.
Turning to `O=C1NC(NC2CCCCC2)=N/C1=C\c1ccc2c(c1)OCO2` [TJU-B253, (4Z)-4-[(2H-1,3-benzodioxol-5-yl)methylidene]-2-(cyclohexylamino)-4,5-dihydro-1H-imidazol-5-one], the activation at 1 µM is below 10%, the activation at 3 µM is below 10% and the activation at 10 µM was below 10%.
Take `O=C1NC(NCCN2CCOCC2)=N/C1=C\c1ccc2c(c1)OC(F)(F)O2` [TJU-B066, (4Z)-4-[(2,2-difluoro-2H-1,3-benzodioxol-5-yl)methylidene]-2-{[2-(morpholin-4-yl)ethyl]amino}-4,5-dihydro-1H-imidazol-5-one]: the activation at 1 µM fell in the range of 10 to 50%, the activation at 3 µM is below 10% and the activation at 10 µM is below 10%.
The molecule `O=C1NC(Nc2ccccc2)=N/C1=C\c1ccc2c(c1)OCCO2` [TJU-B007, (4Z)-4-[(2,3-dihydro-1,4-benzodioxin-6-yl)methylidene]-2-(phenylamino)-4,5-dihydro-1H-imidazol-5-one] yielded an activation at 1 µM below 10%, an activation at 3 µM of 10 to 50% and an activation at 10 µM above 50%.
Consider `O=C1NC(Nc2cccnc2)=N/C1=C\c1ccc2c(c1)OCO2` [TJU-B031, (4Z)-4-[(2H-1,3-benzodioxol-5-yl)methylidene]-2-[(pyridin-3-yl)amino]-4,5-dihydro-1H-imidazol-5-one], for which the activation at 1 µM was below 10%, the activation at 3 µM is below 10% and the activation at 10 µM was in the range of 10 to 50%.
For `Nc1ccc(NC2=N/C(=C\c3ccc4c(c3)OCO4)C(=O)N2)cc1` [TJU-B021, (4Z)-2-[(4-aminophenyl)amino]-4-[(2H-1,3-benzodioxol-5-yl)methylidene]-4,5-dihydro-1H-imidazol-5-one], the activation at 1 µM is below 10%, the activation at 3 µM was below 10% and the activation at 10 µM is above 50%.
`O=C1NC(c2ccccc2)=N/C1=C\c1ccc2c(c1)OC(F)(F)O2` [TJU-B063, (4Z)-4-[(2,2-difluoro-2H-1,3-benzodioxol-5-yl)methylidene]-2-phenyl-4,5-dihydro-1H-imidazol-5-one] came in with an activation at 1 µM below 10%, an activation at 3 µM above 50% and an activation at 10 µM below 10%.
Turning to `CNC1=N/C(=C\c2ccc3c(c2)OCO3)C(=O)N1` [TJU-B033, (4Z)-4-[(2H-1,3-benzodioxol-5-yl)methylidene]-2-(methylamino)-4,5-dihydro-1H-imidazol-5-one], the activation at 1 µM was below 10%, the activation at 3 µM was below 10% and the activation at 10 µM was in the range of 10 to 50%.
For the molecule `O=C1NC(Nc2ccc3c(c2)OCO3)=N/C1=C\c1ccc2c(c1)OCO2` [TJU-B027, (4Z)-2-[(2H-1,3-benzodioxol-5-yl)amino]-4-[(2H-1,3-benzodioxol-5-yl)methylidene]-4,5-dihydro-1H-imidazol-5-one], the activation at 1 µM is below 10%, the activation at 3 µM is below 10% and the activation at 10 µM was 10 to 50%.
Regarding `COc1ccc(/C=C2\N=C(N)N(C)C2=O)cc1OC` [TJU-B070, (4Z)-2-amino-4-[(3,4-dimethoxyphenyl)methylidene]-1-methyl-4,5-dihydro-1H-imidazol-5-one], the activation at 1 µM is below 10%, the activation at 3 µM was below 10% and the activation at 10 µM was below 10%.
For `C/C(=C1/N=C(Nc2ccccc2)NC1=O)c1ccc2c(c1)OCO2` [TJU-B013, (4Z)-4-[1-(2H-1,3-benzodioxol-5-yl)ethylidene]-2-(phenylamino)-4,5-dihydro-1H-imidazol-5-one], the activation at 1 µM was below 10%, the activation at 3 µM lay in the range of 10 to 50% and the activation at 10 µM was above 50%.
The corresponding values for `O=C1NC(NCCN2CCOCC2)=N/C1=C\c1ccc2c(c1)OCO2` [TJU-B004, (4Z)-4-[(2H-1,3-benzodioxol-5-yl)methylidene]-2-{[2-(morpholin-4-yl)ethyl]amino}-4,5-dihydro-1H-imidazol-5-one] are below 10%, 10 to 50% and above 50%.
In turn, `COc1ccccc1NC1=N/C(=C\c2ccc3c(c2)OCO3)C(=O)N1` [TJU-B254, (4Z)-4-[(2H-1,3-benzodioxol-5-yl)methylidene]-2-[(2-methoxyphenyl)amino]-4,5-dihydro-1H-imidazol-5-one] showed an activation at 1 µM below 10%, an activation at 3 µM below 10% and an activation at 10 µM below 10%.
In the case of `O=C1NC(NCCN2CCOCC2)=N/C1=C\c1ccc2c(c1)OCCO2` [TJU-B026, (4Z)-4-[(2,3-dihydro-1,4-benzodioxin-6-yl)methylidene]-2-{[2-(morpholin-4-yl)ethyl]amino}-4,5-dihydro-1H-imidazol-5-one], the activation at 1 µM is 10 to 50%, the activation at 3 µM is below 10% and the activation at 10 µM is above 50%.
